Measurements reported in US11173127B2, “Potato protein nanoparticles” (priority 2013, dated 2021).
Entries after “also recorded” stand apart in the source; their conditions may differ.

Experiments:
Assay type in all cases: physicochemical
[1] = Simulated shelf life test at 23° C. and pH 2.5, exposed to light; settings: pH 2.5, light
Method: PP-VD3 nanoparticles and VD3 suspensions were prepared in glass test tubes at pH 2.5, pasteurized for 1 min at 88° C. in open test tubes, and then capped, cooled and maintained at room temperature (23° C.) exposed to light, and followed with time. Samples for all shelf life tests were prepared without any preservative.
Samples of 1 ml containing 100 μg/ml VD3 in buffer and 1 mg/ml PP were prepared. The samples were individually prepared in order to perform total volume extractions, minimizing transfer/precipitation losses. Three tubes of each type were quantified immediately, to serve as control. All the remaining tubes were then pasteurized. Three tubes of each type were quantified immediately, to serve as reference. The other tubes were stored at the conditions described above. At each time point, three tubes of each type were taken from storage and their VD3 content was quantified. In all experiments, the tubes were stored covered with their lids to prevent evaporation.
Further tests that show the great advantage of the present invention in conferring exceptional stability to active ingredient is provided in FIG. 8. […] Thus, the shelf life test examined the VD3 stability at low pH (2.5) and exposure to light, during time.

[2] = VD3 degradation under industrial pasteurization and hot-bottling conditions (88° C., 1 min); settings: cooled 30 min to 30-35° C., pH 2.5, 100 μg/ml VD3, PP 1 mg/ml where present
Method: VD3 in phosphate buffer, and PP-VD3 nanoparticles were prepared at 1 mg/ml potato protein (PP) and 100 μg/ml VD3 at pH 2.5.
Samples (without a cap) were heated in a water bath for 1 min at 88° C. Following heat treatment, samples were capped and maintained at room temperature for 30 minutes until their temperature decreased to 30-35° C. Controls of VD3, PP and PP-VD3 nanoparticles, at pH 2.5, were extracted immediately without any heat treatment. The other samples were extracted at room temp after the above heat treatment.
VD3 was extracted and quantified using a protocol based on Haham, et al. (Haham, M., et al., Stability and bioavailability of vitamin D nanoencapsulated in casein micelles. Food & Function, 2012). The protocol, used on both aqueous solutions (with and without PP), was as follows: 1 ml of VD3-containing sample was put into a glass test tube. 3 ml of a 2:1 chloroform:methanol mixture was then added, and the tubes were vortexed for ˜20 seconds. […]
Following extraction, 1.5 ml of RP-HPLC mobile phase (methanol:acetonitrile:water 49.5:49.5:1, by volume) were added to the drying vial, given 15 minutes to equilibrate after vortexing, and then transferred to a 1.5 ml glass HPLC vial. […] In the mobile phase, VD3 has a local UV absorption maximum at 267 nm, and so the 267 nm chromatogram was used for VD3 quantification.

[3] = VD retention during pasteurization at 72° C. and pH 2.5 (RP-HPLC); settings: pH 2.5, at least 60 seconds, with 1.5 mg/ml potato protein vs without, VD 0.1 mg/ml
Method: The percentage of VD retention within the composition was assessed during pasteurization at 72° C. and pH 2.5 for up to 60 seconds, in the presence and absence of 1.5 mg/ml potato protein. VD concentration at time zero was 0.1 mg/ml. The measurements were done using RP-HPLC. The samples were kept in the dark and the vials' head spaces were filled with argon to prevent oxidation until the analysis.

[4] = Effect of potato protein on solubilization and transparency (visual); settings: for appearance / turbidity of solution: 25 mM phosphate buffer pH 2.5, without potato protein
Method: First, the effect of potato protein on solubilization and transparency of vitamin D (VD) was assessed. Two aqueous buffer solutions (25 mM phosphate buffer, pH 2.5) containing the same concentration of VD (0.1 mg/ml) were used. Only one vial (left vial of FIG. 1a) also included 1.5 mg/ml potato protein. It is clearly seen that due to the presence of the potato protein, the solution containing VD is transparent, while the one devoid of potato protein is turbid.
Second, the effect of potato protein on solubilization and transparency of omega 3 was also assessed. Specifically, two aqueous buffer solutions (25 mM phosphate buffer, pH 2.5) contained the same concentration of 0.5 ul/ml omega 3 (ethyl ester DHA) colored with Nile red, which is only pink in a hydrophobic environment. One vial (left vial of FIG. 1b) also contained 1.5 mg/ml potato protein.
Thus, the potato protein nanoparticle solubilized the hydrophobic ingredient in a uniform, transparent, manner.

[5] = Dynamic light scattering particle size distribution; settings: VD without potato protein, 10-50 ug/ml VD, phosphate buffer 25 mM pH 2.5, bimodal distribution
Method: Dynamic light scattering (DLS) was used to evaluate size distribution of the potato protein-VD complexes.
The particle size of VD without potato protein was measured with different concentration of VD—10, 25, 35 and 50 ug/ml VD in a phosphate buffer (25 mM, pH 2.5). In all concentrations a bimodal distribution was obtained, with diameter larger than 1500 nm.
The size distributions of the VD—potato protein nano-particles were also measured at several concentrations of VD—10, 25, 35 and 50 μg/ml VD. The size distributions (FIG. 3) consisted of two fractions. The first fraction (84% by volume) comprised the small nano-particles of about 15 nm diameter, while the second fraction comprised nano-particles whose average diameter was around 80 nm.

[6] = VD retention at pH 2.5 and 25° C. (RP-HPLC); settings: pH 2.5, 25° C., with 1.5 mg/ml potato protein vs without; VD 0.1 mg/ml
Method: The percentage of VD retention within the composition at pH 2.5, and 25° C. was also assessed, in the presence and absence of 1.5 mg/ml potato protein. VD concentration at time zero was 0.1 mg/ml. […] The measurements were done using RP-HPLC.

Structure (SMILES)	VD degraded / lost ([1]; after one week)	post-pasteurization VD3 lost ([1]; within 24 hours)	VD degraded / lost by heat treatment [2]	protection against heat induced degradation (VD retention) [3]	appearance / transparency of solution ([4]; 25 mM phosphate buffer pH 2.5, with 1.5 mg/ml potato protein)	appearance / turbidity of solution [4]	particle diameter (DLS) [5]	protection of VD (VD retention) [6]
C=C1CC[C@H](O)C/C1=C/C=C1\CCC[C@]2(C)[C@@H]([C@H](C)CCCC(C)C)CC[C@@H]12 [VD, Vitamin D3]	almost all	52%	55%	significant protection	transparent	turbid; also recorded: much more turbid	> 1500 nm	significant protection
CC/C=C\C/C=C\C/C=C\C/C=C\C/C=C\C/C=C\CCC(=O)OCC [omega 3, omega 3 DHA (ethyl ester)]	–	–	–	–	–	much more turbid	–	–
